Data published in patent publication US8492614B2, “Plant biochemical systems and uses thereof” (The Board of Trustees of the University of Illinois, priority 2007, dated 2013).
Entries after “also recorded” stand apart in the source; their conditions may differ.

Legend:
Lhcb expression = experiment: Lhcb RNA levels by northern analysis after ABA treatment of etiolated seedlings; format: in vivo, Arabidopsis; details: 800 nM ABA
Experimental: Six-d-old dark-grown Arabidopsis seedlings col wild type or insertion mutants were grown on 0.8% agarose plates containing only 0.5× Murashige and Skoog media as described in Lapik and Kaufman (2003). The growth media contains no additional sugar, hormones, vitamins or other nutrients. Seedlings were irradiated with a single pulse (10 s) of low fluence BL (total fluence of 10^2 μmol m^−2); or a single pulse (100 s) of saturation fluence BL (total fluence of 10^4 μmol m^−2); or no light (DK), and/or, treated with 800 nM ABA dissolved in ethanol, or ethanol alone, placed back in the dark for two h after which total RNA was extracted and used for northern blot analysis (Lapik and Kaufman, 2003). Lhcb and rDNA probes used, quantitation methods, and means of normalization to rRNA levels are described elsewhere (Marrs and Kaufman, (1991) Planta 183: 327-333). […] All induction data is correct for loading through the quantitation of the rRNA as described (Warpeha and Kaufman, (1990) Planta 182: 553-558). […] Real time quantitative PCR (qPCR) was used to measure the level of Lhcb RNA induction in response to a single pulse of low fluence blue light as a confirmation of the Northern blot analysis methods. […] The qPCR-derived information (4 different RNA sets of Dark and BL-treated) data was analyzed using (ΔΔCoT). […]

[1] = test system: etiolated Arabidopsis seedlings; experiment: Cotyledon natural fluorescence by deconvoluting microscopy; format: in vivo; details: hormone applied to etiolated cotyledons; 24 h; 1.0 μM ABA, 500 μM JA
Experimental: Fluorescent images were obtained of living unfixed seedlings 24 h post BL or ABA treatment as described in the “Plant Growth and Preparation of Tissue” section. Optical sectioning was achieved by using a Zeiss Axiovert 200M microscope (Carl Zeiss), equipped with ApoTome (collected by grid projection), and a digital camera and the 4#,6-diamino-phenylindole, fluorescein isothiocyanate, and Texas Red filter sets (Chroma). Photographs of whole cotyledon fluorescence were snapped on the same microscope set up, minus the apoTome setting.
The preparation of whole cell extracts from the areal portions of the seedlings for the quantification of Phe levels and PD1 activity levels is described in (Warpeha et al., Plant Physiol. 143:1590-1600, 2007). Phe concentration is determined by HPLC. […] Natural fluorescence of the cotyledons is visualized and quantitated by deconvoluting microscopy using a “DAPI-Long Pass” filter which allows excitation between 300-380 nm and emits with a cutoff […] 400 nm.
If the Phe produced by activated PD1 is necessary for the ability of young etiolated seedlings to respond to UV-B, salt or heat stress, then it is possible that the addition of exogenous Phe (effectively cross feeding Phe) could restore a wild type response to GCR1, GPA1 and PD1 mutants when assayed for cotyledon fluorescence and the ability to survive sub-lethal levels of UV-C. To determine if exogenous Phe can restore wild type responses to GCR1, GPA, and PD1 mutants, 1 mM Phe is added to the top agar during planting and the experiment described above specifically testing for cotyledon surface fluorescence and the ability to survive sub-lethal levels of UV-C is repeated. Serine and […] are used as negative controls in these assays.
The experiments described above for examining if GCR1, GPA1 and PD1 are required for young etiolated seedlings to respond to UV-B, salt or heat stress are performed but with ABA, ACC, JA and SA substituting for UV-B, salt and heat. For these experiments, ABA is tested at 1.0 μM dissolved in ethanol and applied as an atomized mist. […]

PD1 [2] = experiment: Cytosolic PD1 activity after ABA treatment of etiolated seedlings; format: in vivo, Arabidopsis; details: ABA treatment of etiolated wild type
Source text: Activated GPA1 has a specific physical interaction with PD1 that results in a significant increase in PD1 activity. PD1 is the only member of the PD family that is expressed in etiolated Arabidopsis. […] The increase in PD1 activity in response to BL or ABA treatment also requires GCR1. BL Irradiation or ABA treatment of pd1, gcr1 and gpa1 T-DNA insertion mutants result in none of these events described for wt. We conclude that GCR1, GPA1 and PD1 form a signaling chain that is responsible for ABA and BL induced synthesis of phenylpyruvate, phenylalanine and a series of UV absorbing products from the phenylpropanoid pathway. In etiolated seedlings phenylalanine is synthesized via a phenylpyruvate intermediate, much like in bacteria and fungi, and not via an arogenate pathway (Warpeha et al., Plant Physiol. 140:844-855).
All plants are returned to complete darkness for two hours after which cytosolic extracts are prepared and assayed as described infra.

[3] = Stability of absorbance spectra of cell free extracts with or without phenylalanine; format: physicochemical, Arabidopsis; details: cell free extracts in buffer; 24 h, room temperature or +4° C., lab lighting
Experimental: Cell free extracts were left at room temperature for 24 h after a 10^5 μmol m^−2 treatment of UV (366 nm) in lab lighting (which is fluorescent).

PD1 [4] = biological target: T1, PD1 (Arabidopsis thaliana, UniProt Q9ZUY3); experiment: In vitro GPA1-PD1 activation assay; format: biochemical; details: compared with inactive (GDP or GDPβS) or no GPA1
T1 construct: Full-length GPA1 and PD1 templates were amplified, prepared, and purified by the methods described; made in house; host or cells: cell-free: TNT T7 coupled wheat germ extract system (Promega)
T1 sequence (Q9ZUY3 25-424): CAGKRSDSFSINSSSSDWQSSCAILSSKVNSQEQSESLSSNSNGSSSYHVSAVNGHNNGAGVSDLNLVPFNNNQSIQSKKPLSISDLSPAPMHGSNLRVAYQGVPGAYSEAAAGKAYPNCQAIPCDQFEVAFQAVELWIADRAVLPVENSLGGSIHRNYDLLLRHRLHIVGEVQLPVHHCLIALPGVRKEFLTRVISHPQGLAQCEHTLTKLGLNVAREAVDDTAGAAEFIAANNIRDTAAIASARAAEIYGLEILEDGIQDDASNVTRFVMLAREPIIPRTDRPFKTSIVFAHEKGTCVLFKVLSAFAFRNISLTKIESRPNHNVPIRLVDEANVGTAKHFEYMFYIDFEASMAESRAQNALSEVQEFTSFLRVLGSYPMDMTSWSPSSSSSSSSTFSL
T1 sequence (P18064 1-383 partner): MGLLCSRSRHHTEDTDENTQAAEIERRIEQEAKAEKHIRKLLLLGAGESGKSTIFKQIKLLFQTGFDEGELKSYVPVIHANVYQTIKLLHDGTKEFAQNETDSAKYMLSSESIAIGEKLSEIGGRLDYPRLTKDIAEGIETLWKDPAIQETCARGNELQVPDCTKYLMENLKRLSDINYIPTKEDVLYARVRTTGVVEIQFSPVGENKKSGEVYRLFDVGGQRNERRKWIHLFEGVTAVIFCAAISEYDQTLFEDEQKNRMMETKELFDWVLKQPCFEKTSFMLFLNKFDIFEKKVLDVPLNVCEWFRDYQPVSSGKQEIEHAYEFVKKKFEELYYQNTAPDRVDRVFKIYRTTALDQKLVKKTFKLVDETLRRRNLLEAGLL
Experimental: Full-length GPA1 and PD1 templates were amplified, prepared, and purified by the methods described (Lapik and Kaufman, 2003). GPA1 and PD1 proteins were individually produced by coupled in vitro transcription/translation using TNT T7 coupled wheat germ extract system (Promega). In vitro association assays were conducted by mixing approximately equimolar concentrations of GPA1 with PD1 in PD assay buffer at 4° C. with modifications for plants: 50 mM K2PO4 pH 7.5, 1.0 mM dithiothreitol, […], and 0.5% protease inhibitor cocktail for plants. Activated GPA1 was achieved by preincubation with […] (a nonhydrolyzable GTP analog). Inactivated GPA1 was achieved by preincubation with GDP, or GDPγS (a nonhydrolyzable GDP analog). […] Reaction mixtures were stopped at time zero and various time points thereafter by adding 0.5 volume of 1N NaOH.
The increase in activity occurs quickly as approximately 90% of the measured increase in activity occurs within the first 10 min of incubation.

CC1=CC(=O)CC(C)(C)[C@@]1(O)/C=C/C(C)=C\C(=O)O [ABA, abscisic acid]
Lhcb RNA accumulation in mutant seedlings (Lhcb expression; gcr1, gpa1, prn1, nf-y-b9, nf-y-a5 mutants): fails to induce Lhcb RNA accumulation | Lhcb expression in wild type seedlings (Lhcb expression; six-d-old etiolated wild type): induces Lhcb expression | accumulation of UV- and BL-absorbing fluorescent material in cotyledons [1]: phenotype identical to that observed in wild-type seedlings for BL irradiation; also recorded: response pattern is identical to that of UV-B, salt and heat | cytosolic PD1 activity (PD1 [2]): increase in cytosolic PD1 activity

CC/C=C\C[C@H]1C(=O)CC[C@@H]1CC(=O)O [JA, jasmonic acid, reference compound]
accumulation of UV- and BL-absorbing fluorescent material in cotyledons [1]: response pattern is identical to that of UV-B, salt and heat

CSCC[C@H](N)C(=O)O [L-methionine, reference compound]
stability of the extract solution (absorbance spectra, pigments) over time [3]: did not increase stability of the solution

B1: activated GPA1: Arabidopsis G-protein Gα subunit made by in vitro transcription/translation, activated with GTPγS (protein, UniProt P18064 2-383, looked up)
Guanine nucleotide-binding …: GLLCSRSRHHTEDTDENTQAAEIERRIEQEAKAEKHIRKLLLLGAGESGKSTIFKQIKLLFQTGFDEGELKSYVPVIHANVYQTIKLLHDGTKEFAQNETDSAKYMLSSESIAIGEKLSEIGGRLDYPRLTKDIAEGIETLWKDPAIQETCARGNELQVPDCTKYLMENLKRLSDINYIPTKEDVLYARVRTTGVVEIQFSPVGENKKSGEVYRLFDVGGQRNERRKWIHLFEGVTAVIFCAAISEYDQTLFEDEQKNRMMETKELFDWVLKQPCFEKTSFMLFLNKFDIFEKKVLDVPLNVCEWFRDYQPVSSGKQEIEHAYEFVKKKFEELYYQNTAPDRVDRVFKIYRTTALDQKLVKKTFKLVDETLRRRNLLEAGLL
modifications: GTPγS-bound
increase in PD1 activity (PD1 [4]): 2 fold
